Measurements taken from US6124456A, “Pyrazolopyridine compound and pharmaceutical use thereof” (Fujisawa Pharmaceutical Co., Ltd., priority 1996, dated 2000).

Test system: human A1 receptor
Experiment: Adenosine antagonistic activity: radioligand binding with 3H-DPCPX
Conditions: at the dose of 1.0×10^-7 M; radioligand 3H-DPCPX 2×10^-9 M
Description: Test: Adenosine Antagonistic Activity
The adenosine antagonistic activity of the test compound was examined by radioligand binding techniques using 8-cyclopentyl-1,3-dipropylxanthine, dipropyl-2,3-^3 H(N)] (^3 H-DPCPX, 2×10^-9 M) for human A^1 receptor.

## CN1CCC(n2nc(-c3c(-c4ccccc4)nn4ccccc34)ccc2=O)CC1 [Example 2, 3-[2-(1-methylpiperidin-4-yl)-3-oxo-2,3-dihydropyridazin-6-yl]-2-phenylpyrazolo[1,5-a]pyridine]
  inhibition (%): more than 90%
